Patent publication US20260144796A1, “Compounds and Methods for Improving Health” (Acurx Pharmaceuticals, Inc., priority 2022, published 2026)
≈ marks a conversion by molar mass, not a printed value. Entries after “also recorded” stand apart in the source; their conditions may differ. Like-named read-outs stand apart in the source and are kept apart here.

Assays:
gut microbiome = assay: Germ-free humanized mouse study, 16S rRNA gut microbiome analysis; type: in vivo; conditions: humanized germ-free mice; for proportional change of Bacteroidetes (in words): phylum level
Excerpt: Germ-free (GF) mice (six per group) were randomly assigned to IBZ, VAN, FDX, MTZ, or control groups.
An oral gavage of healthy human-derived fecal slurry was given to GF mice. The humanized mice were housed in a sterile biological safety cabinet (BSC) for one week to allow the donor gut microbiome to establish. Humanized mice were then moved to sterile, micro-isolator cages and pellet chow diet was exchanged for a powder chow diet. The humanized mice were then allowed one week to acclimate to the powder chow diet. In addition, a stool sample was obtained prior to the change in diet (baseline 1). At day 14, once the mice acclimated to the powder chow diet, a second baseline stool sample was obtained (baseline 2) and antibiotic treatment was started. The appropriate antibiotics were added to the powder chow diet for 10 days. At day 16, two days after beginning antibiotic treatment, another stool sample was collected (ABX-1). During the 10-day antibiotic treatment, powder chow dishes were refilled each day with fresh chow containing the randomly assigned antibiotic. Stool samples were again collected at day 24 (ABX-2).
To assess antibiotic microbiome effect, 16S rRNA metagenomics was used on stool samples that were collected at day 0 (baseline 1 and baseline 2) and after 2 and […] of treatment with antibiotics. Bulk DNA was extracted from stool samples using the DNeasy® PowerSoil® Kit. The V4 region of the bacterial 16S rRNA gene was sequenced using the Illumina MiSeq and CLC Genomics Workbench. Raw sequencing reads were processed and curated using the mothur (v.1.48.0) software package and the mothur MiSeq SOP was followed as outlined in Schloss, P. D., et al., Introducing mothur: open-source, platform-independent, community supported software for describing and comparing microbial communities. Appl Environ Microbiol, 2009. 75(23): p. 7537-41 (see also, Kozich, J. J., et al., Development of a dual-index sequencing strategy and curation pipeline for analyzing amplicon sequence data on the MiSeq Illumina sequencing platform. Appl Environ Microbiol, 2013. 79(17): p. 5112-20.). All data visualization and statistical analysis were performed using R studio (R Core Team (2023). R: A Language and Environment for Statistical Computing, Vienna, Austria.).

[1] = tested on: flagellar genes fliA, flgB, fliC in C. difficile strain CD 630; assay: Flagellar gene expression by qRT-PCR
Enterococcus avium = assay: MIC determination, stool Firmicute isolates; type: cell-based
Excerpt: (§1) Fecal samples homogenized in reduced PBS (0.1 g stool/ml PBS) and serially diluted and plated directly onto YCFA7 agar supplemented with 0.002 g/ml each of glucose, maltose and cellobiose in large (13.5 cm diameter) petri dishes. Isolated colonies were identified by PCR amplification of the full-length 16S rRNA gene (using 7F (5′-[…]-3′) forward primer and 1510R (5′-[…]-3′) reverse primer followed by Sanger sequencing. Full-length 16S rRNA gene sequence reads were aligned using CLC Genomics (Qiagen) using the Ribosomal Database Project (RDP) as reference to classify reads to Operational Taxonomic Units (OTUs). The full-length 16S rRNA gene sequence of each species-level OTU was compared to the Ribosomal Database Project (RDP) reference database to assign taxonomic designations to the genus level and a BLAST search performed to identify any candidate novel species.
(§2) Strains plated onto blood agar (Hardy Diagnostics) with a 24-hour incubation at 37° C. in an anaerobic environment (Coy vinyl anaerobic chamber). After incubation, 3-5 well-isolated colonies were suspended into 5 mL of BHI broth (Criterion Media). The cultures were incubated in an anaerobic chamber for 24 hours to achieve a 0.5 McFarland Standard. Brucella agar with 5% hemin (5 ug/mL) (Sigma), vitamin K (10 ug/mL), and defibrinated sheep blood (Northeast Lab Services). The supplemented brucella agar was then utilized for two-fold serial dilution to create plates with IBZ concentration of 0.5 to 16 μg/mL plates. Plates were allowed to dry in a sterile location. After drying, the plates were covered with foil to prevent any photo-damage to the hemin and placed in the anaerobic chamber for 1 hour to reduce the media. The broth culture was then spotted onto the plates and covered with foil. Plates were allowed to dry completely before inverting them for incubation for 48 hours. Plates were analyzed and MIC recorded.

Blautia sp. = assay: MIC determination, stool Firmicute isolates; type: cell-based; conditions: N=1
Excerpt: as §1, §2

Enterococcus mundtii = assay: MIC determination, stool Firmicute isolates; type: cell-based; conditions: N=1
Excerpt: as §1, §2

[2] = tested on: representative Actinobacteria (Bifidobacteriaceae and Coriobacteriaceae); assay: MIC, isolated gut microbiota species: Actinobacteria; type: cell-based; conditions: inactive
Experimental: as §2, with “Brucella agar with 5% hemin (5 ug/mL) (Sigma), vitamin K (10 ug/mL), and defibrinated sheep blood (Northeast Lab Services). The supplemented brucella agar was then utilized for two-fold serial dilution to create plates with IBZ concentration of 0.5 to 16 μg/mL plates.” left out

Clostridioides difficile = assay: MIC determination, C. difficile strains; type: cell-based
Excerpt: as §1, §2

[3] = tested on: C. difficile CD 630 and R20291 cell morphology; assay: Morphology assessment by bright field microscopy; type: cell-based; conditions: sub-inhibitory to MIC, 24 hours, listed as IBZ
Experimental: Cultures were then incubated in an anaerobic chamber at 37° C. in for 24 hrs. Pre-cultures were diluted to approximately 10^6CFU/mL (1:100) in fresh BHI comprising 0.25×MIC (0.5 ug/mL) of the appropriate antibiotic. Following incubation for 24 hrs, EVOS imaging system (Thermofisher) was used to take bright field pictures at 40× magnification.

[4] = tested on: C. difficile CD 630 motility; assay: Phenotypic motility assay; conditions: sub-inhibitory concentrations in semi-solid BHI agar
Coprococcus sp = assay: MIC determination, stool Firmicute isolates; type: cell-based; conditions: N=1
[5] = tested on: certain Firmicutes (Lachnospiraceae and Lactobacilluseae); assay: MIC, isolated gut microbiota species: certain Firmicutes; type: cell-based; conditions: inactive
Experimental: as §2, with “Brucella agar with 5% hemin (5 ug/mL) (Sigma), vitamin K (10 ug/mL), and defibrinated sheep blood (Northeast Lab Services). The supplemented brucella agar was then utilized for two-fold serial dilution to create plates with IBZ concentration of 0.5 to 16 μg/mL plates.” left out

[6] = antibiotic in powder chow 10 days
[7] = antibiotic in powder chow 10 days, compared to Baseline 2 (D14)

O=c1[nH]c(NCc2ccc(Cl)c(Cl)c2)nc2ncn(CCN3CCOCC3)c12 [Ibezapolstat, 2-((3,4-dichlorobenzyl)amino)-7-(2-morpholinoethyl)-1,7-dihydro-6H-purin-6-one]
proportional change of Bacteroidetes (in words) (gut microbiome): proportional increases
proportional change of Bacteroidetes (in words) (gut microbiome; listed as IBZ): significant proportional increase
Average Change in Metric ± SD, Bray-Curtis Dissim. to Baseline 1 (gut microbiome; [6]): 0.81 ± 0.02
Average Change in Metric ± SD, Bray-Curtis Dissim. to Baseline 2 (gut microbiome; [6]): 0.68 ± 0.03
Avg. Change in Relative Abundance ± SD, Actinobacteria (gut microbiome; [7]): 0.02% ± 0.08%
Avg. Change in Relative Abundance ± SD, Bacteroidetes (gut microbiome; [7]): 34% ± 2.96%
Avg. Change in Relative Abundance ± SD, Proteobacteria (gut microbiome; [7]): 9.7% ± 3.12%
reduction in motility and flagellar genes ([1]; 4-hour treatment with 0.25×MIC): up to 50%
flgB expression decreased versus non-treated control ([1]; CD 630, 0.5×MIC, 4 hours): about 30%
fliA expression attenuated versus non-treated control ([1]; CD 630, 0.5×MIC, 4 hours): about 60%
fliC expression decreased versus non-treated control ([1]; CD 630, 0.5×MIC, 4 hours): about 80%
decrease overall in flagellar gene expression ([1]; CD 630, sub-MIC (0.5×MIC), 4 hours, gluD control): 2-to-5 fold
MIC50 (Enterococcus avium; N=2): 12.5 µg/mL (≈ 29.5 µM)
MIC (Enterococcus avium; N=2, read-out: MIC Max): 12.5 µg/mL (≈ 29.5 µM)
MIC (Enterococcus avium; N=2, read-out: MIC Min): 12.5 µg/mL (≈ 29.5 µM)
MIC50 (Blautia sp.): 12.5 µg/mL (≈ 29.5 µM)
MIC50 (Enterococcus mundtii): 12.5 µg/mL (≈ 29.5 µM)
MIC [2]: > 64 µg/mL
MIC50 (Clostridioides difficile; Clostridioides difficile, N=6): 0.5 µg/mL (≈ 1.18 µM)
MIC (Clostridioides difficile; Clostridioides difficile, N=6, read-out: MIC Max): 1 µg/mL (≈ 2.36 µM)
MIC (Clostridioides difficile; Clostridioides difficile, N=6, read-out: MIC Min): 0.25 µg/mL (≈ 0.591 µM)
MIC (Clostridioides difficile; Clostridioides difficile, strains of C. difficile, highly active): ≤ 2 µg/mL
MIC (Clostridioides difficile; strains of C. difficile, highly active): < 2 µg/mL
cell morphology [3]: elongated cell phenotype; also recorded: dose-dependent effect on C. difficile cell length
motility of CD 630 [4]: attenuated motility
motility of CD 630 ([4]; listed as IBZ): less motile
MIC50 (Coprococcus sp): 25 µg/mL (≈ 59.1 µM)
MIC [5]: > 64 µg/mL
